Assays:
Experiment in all cases: relative viability (nuclei count vs DMSO), 5 days (fraction); higher = more cells survive
NCI-H3122 = test system: NCI-H3122
Method in brief: (§1)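 Relative viability was taken as the ratio of nuclei in treated wells to nuclei in vehicle wells. Lung cancer cell lines in 1536-well plates received compounds by pin tool one day after seeding, either one drug alone or a fixed anchor-drug dose plus five library-drug doses (not always all listed) in √10 steps. Nuclei were counted on 4× images after 5 days of treatment, and values are medians of duplicate plates.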

EPLC-272H = test system: EPLC-272H
Method in brief: as §1

NCI-H1975 = test system: NCI-H1975
Method in brief: as §1

NCI-H441 = test system: NCI-H441
Method in brief: as §1

NCI-H1755 = test system: NCI-H1755
Method in brief: as §1

NCI-H2085 = test system: NCI-H2085
Method in brief: as §1

ChaGo-K-1 = test system: ChaGo-K-1
Method in brief: as §1

NCI-H2126 = test system: NCI-H2126
Method in brief: as §1

HOP-62 = test system: HOP-62
Method in brief: as §1

ABC-1 = test system: ABC-1
Method in brief: as §1

HCC-78 = test system: HCC-78
Method in brief: as §1

NCI-H1993 = test system: NCI-H1993
Method in brief: as §1

NCI-H2023 = test system: NCI-H2023
Method in brief: as §1

HCC-15 = test system: HCC-15
Method in brief: as §1

NCI-H1915 = test system: NCI-H1915
Method in brief: as §1

COR-L 105 = test system: COR-L 105
Method in brief: as §1

UMC-11 = test system: UMC-11
Method in brief: as §1

LXF-289 = test system: LXF-289
Method in brief: as §1

NCI-H322M = test system: NCI-H322M
Method in brief: as §1

NCI-H1666 = test system: NCI-H1666
Method in brief: as §1

EMC-BAC-2 = test system: EMC-BAC-2
Method in brief: as §1

CAL-12T = test system: CAL-12T
Method in brief: as §1

`C[C@@H]1CN(CC(=O)Nc2ccc3c(c2)Cc2cccc(-c4cc(=O)cc(N5CCOCC5)o4)c2S3)C[C@H](C)O1` + CC(C)C[C@H](NC(=O)[C@H](Cc1ccccc1)NC(=O)c1cnccn1)B(O)O [Bortezomib] (partner 0.002 µM) showed a relative viability (NCI-H3122; first compound 0.04 µM) of 1.06, a relative viability (NCI-H3122; first compound 0.1265 µM) of 0.977 and a relative viability (NCI-H3122; first compound 0.4 µM) of 1.02. For the same compound, the relative viability (NCI-H3122; first compound 4 µM) was 0.969, the relative viability (EPLC-272H; first compound 0.04 µM) was 0.925 and the relative viability (EPLC-272H; first compound 0.1265 µM) was 0.894. It also gave a relative viability (EPLC-272H; first compound 0.4 µM) of 1.03, a relative viability (EPLC-272H; first compound 4 µM) of 0.993 and a relative viability (NCI-H1975; first compound 0.04 µM) of 0.394. It also gave a relative viability (NCI-H1975; first compound 0.1265 µM) of 0.415, a relative viability (NCI-H1975; first compound 0.4 µM) of 0.39 and a relative viability (NCI-H1975; first compound 4 µM) of 0.27. The relative viability (NCI-H441; first compound 0.04 µM) was 0.6, the relative viability (NCI-H441; first compound 0.4 µM) was 0.445 and the relative viability (NCI-H441; first compound 4 µM) was 0.489. For the same compound, the relative viability (NCI-H1755; first compound 0.04 µM) was 1.05, the relative viability (NCI-H1755; first compound 0.1265 µM) was 1.01 and the relative viability (NCI-H1755; first compound 0.4 µM) was 0.948. The relative viability (NCI-H1755; first compound 4 µM) was 0.942, the relative viability (NCI-H2085; first compound 0.04 µM) was 0.999 and the relative viability (NCI-H2085; first compound 0.1265 µM) was 1.04. It also gave a relative viability (NCI-H2085; first compound 0.4 µM) of 0.975, a relative viability (NCI-H2085; first compound 4 µM) of 0.805 and a relative viability (ChaGo-K-1; first compound 0.1265 µM) of 1.02. It also gave a relative viability (ChaGo-K-1; first compound 0.4 µM) of 0.936, a relative viability (ChaGo-K-1; first compound 4 µM) of 0.87 and a relative viability (NCI-H2126; first compound 0.04 µM) of 1.13. It also gave a relative viability (NCI-H2126; first compound 0.1265 µM) of 1.12, a relative viability (NCI-H2126; first compound 0.4 µM) of 1.17 and a relative viability (NCI-H2126; first compound 4 µM) of 1.06. For the same compound, the relative viability (HOP-62; first compound 0.04 µM) was 0.677, the relative viability (HOP-62; first compound 0.1265 µM) was 0.548 and the relative viability (HOP-62; first compound 0.4 µM) was 0.755. The relative viability (HOP-62; first compound 4 µM) was 1.02, the relative viability (ABC-1; first compound 0.1265 µM) was 0.3 and the relative viability (ABC-1; first compound 0.4 µM) was 0.304. The relative viability (ABC-1; first compound 4 µM) was 0.265, the relative viability (HCC-78; first compound 0.04 µM) was 0.404 and the relative viability (HCC-78; first compound 0.1265 µM) was 0.484. For the same compound, the relative viability (HCC-78; first compound 0.4 µM) was 0.431, the relative viability (HCC-78; first compound 4 µM) was 0.432 and the relative viability (NCI-H1993; first compound 0.04 µM) was 1.12. The relative viability (NCI-H1993; first compound 0.1265 µM) was 1.08, the relative viability (NCI-H1993; first compound 0.4 µM) was 0.763 and the relative viability (NCI-H1993; first compound 4 µM) was 1.01. The relative viability (NCI-H2023; first compound 0.04 µM) was 1.06, the relative viability (NCI-H2023; first compound 0.1265 µM) was 0.969 and the relative viability (NCI-H2023; first compound 0.4 µM) was 0.783. For the same compound, the relative viability (NCI-H2023; first compound 4 µM) was 0.876, the relative viability (HCC-15; first compound 0.04 µM) was 1 and the relative viability (HCC-15; first compound 0.1265 µM) was 0.948. The relative viability (HCC-15; first compound 0.4 µM) was 1.03, the relative viability (HCC-15; first compound 4 µM) was 0.836 and the relative viability (NCI-H1915; first compound 0.04 µM) was 0.905. It also gave a relative viability (NCI-H1915; first compound 0.1265 µM) of 0.964, a relative viability (NCI-H1915; first compound 0.4 µM) of 1.03 and a relative viability (NCI-H1915; first compound 4 µM) of 0.73. It also gave a relative viability (COR-L 105; first compound 0.04 µM) of 0.741, a relative viability (COR-L 105; first compound 0.1265 µM) of 0.896 and a relative viability (COR-L 105; first compound 0.4 µM) of 1.1. The relative viability (COR-L 105; first compound 4 µM) was 0.484, the relative viability (UMC-11; first compound 0.04 µM) was 0.778 and the relative viability (UMC-11; first compound 0.1265 µM) was 0.693. The relative viability (UMC-11; first compound 0.4 µM) was 0.919, the relative viability (UMC-11; first compound 4 µM) was 0.543 and the relative viability (LXF-289; first compound 0.04 µM) was 0.996. The relative viability (LXF-289; first compound 0.1265 µM) was 0.977, the relative viability (LXF-289; first compound 0.4 µM) was 1.02 and the relative viability (LXF-289; first compound 4 µM) was 0.999. It also gave a relative viability (NCI-H322M; first compound 0.04 µM) of 1.09, a relative viability (NCI-H322M; first compound 0.1265 µM) of 1.14 and a relative viability (NCI-H322M; first compound 0.4 µM) of 1.32. It also gave a relative viability (NCI-H322M; first compound 4 µM) of 1.12, a relative viability (NCI-H1666; first compound 0.04 µM) of 0.872 and a relative viability (NCI-H1666; first compound 0.1265 µM) of 0.993. The relative viability (NCI-H1666; first compound 0.4 µM) was 0.823, the relative viability (NCI-H1666; first compound 4 µM) was 0.643 and the relative viability (EMC-BAC-2; first compound 0.04 µM) was 1.07. For the same compound, the relative viability (EMC-BAC-2; first compound 0.1265 µM) was 1.1, the relative viability (EMC-BAC-2; first compound 0.4 µM) was 1.06 and the relative viability (EMC-BAC-2; first compound 4 µM) was 0.985. For the same compound, the relative viability (CAL-12T; first compound 0.04 µM) was 1.06, the relative viability (CAL-12T; first compound 0.1265 µM) was 0.954 and the relative viability (CAL-12T; first compound 0.4 µM) was 1.06. For the same compound, the relative viability (CAL-12T; first compound 4 µM) was 0.796.
`CC(C)Oc1cc(Nc2nc(N[C@@H](C)c3ccc(F)cn3)ncc2Cl)n[nH]1` [AZ23] + CC(C)C[C@H](NC(=O)[C@H](Cc1ccccc1)NC(=O)c1cnccn1)B(O)O [Bortezomib] (partner 0.002 µM) was tested, and the relative viability (NCI-H3122; first compound 0.01 µM) was 1.04, the relative viability (NCI-H3122; first compound 0.03162 µM) was 1.02 and the relative viability (NCI-H3122; first compound 0.3162 µM) was 1.12. It also gave a relative viability (EPLC-272H; first compound 0.01 µM) of 0.942, a relative viability (EPLC-272H; first compound 0.03162 µM) of 1.02 and a relative viability (NCI-H1975; first compound 0.01 µM) of 0.393. For the same compound, the relative viability (NCI-H1975; first compound 0.03162 µM) was 0.372, the relative viability (NCI-H1975; first compound 0.3162 µM) was 0.375 and the relative viability (NCI-H441; first compound 0.01 µM) was 0.833. The relative viability (NCI-H441; first compound 0.03162 µM) was 1.05, the relative viability (NCI-H441; first compound 0.3162 µM) was 0.678 and the relative viability (NCI-H1755; first compound 0.01 µM) was 1.16. It also gave a relative viability (NCI-H1755; first compound 0.03162 µM) of 1.07, a relative viability (NCI-H1755; first compound 0.3162 µM) of 1.03 and a relative viability (NCI-H2085; first compound 0.01 µM) of 0.991. The relative viability (NCI-H2085; first compound 0.03162 µM) was 1.03, the relative viability (NCI-H2085; first compound 0.3162 µM) was 1.01 and the relative viability (ChaGo-K-1; first compound 0.01 µM) was 0.96. It also gave a relative viability (ChaGo-K-1; first compound 0.03162 µM) of 1.22, a relative viability (ChaGo-K-1; first compound 0.3162 µM) of 1.16 and a relative viability (NCI-H2126; first compound 0.01 µM) of 1.18. For the same compound, the relative viability (NCI-H2126; first compound 0.03162 µM) was 1.18, the relative viability (NCI-H2126; first compound 0.3162 µM) was 1.09 and the relative viability (HOP-62; first compound 0.01 µM) was 0.821. It also gave a relative viability (HOP-62; first compound 0.03162 µM) of 0.517, a relative viability (HOP-62; first compound 0.3162 µM) of 0.867 and a relative viability (ABC-1; first compound 0.01 µM) of 0.29. The relative viability (ABC-1; first compound 0.03162 µM) was 0.269, the relative viability (ABC-1; first compound 0.3162 µM) was 0.255 and the relative viability (HCC-78; first compound 0.01 µM) was 0.395. It also gave a relative viability (HCC-78; first compound 0.03162 µM) of 0.507, a relative viability (HCC-78; first compound 0.3162 µM) of 0.335 and a relative viability (NCI-H1993; first compound 0.01 µM) of 0.911. The relative viability (NCI-H1993; first compound 0.3162 µM) was 1.16, the relative viability (NCI-H2023; first compound 0.03162 µM) was 0.959 and the relative viability (NCI-H2023; first compound 0.3162 µM) was 1.22. For the same compound, the relative viability (HCC-15; first compound 0.01 µM) was 1.38, the relative viability (HCC-15; first compound 0.03162 µM) was 1.09 and the relative viability (HCC-15; first compound 0.3162 µM) was 1.16. For the same compound, the relative viability (NCI-H1915; first compound 0.01 µM) was 1.26, the relative viability (NCI-H1915; first compound 0.03162 µM) was 1.09 and the relative viability (NCI-H1915; first compound 0.3162 µM) was 1.05. It also gave a relative viability (COR-L 105; first compound 0.01 µM) of 0.733, a relative viability (COR-L 105; first compound 0.03162 µM) of 1.04 and a relative viability (COR-L 105; first compound 0.3162 µM) of 0.757. The relative viability (UMC-11; first compound 0.01 µM) was 0.766, the relative viability (UMC-11; first compound 0.03162 µM) was 0.86 and the relative viability (UMC-11; first compound 0.3162 µM) was 0.808. For the same compound, the relative viability (LXF-289; first compound 0.01 µM) was 1.11, the relative viability (LXF-289; first compound 0.03162 µM) was 1.05 and the relative viability (LXF-289; first compound 0.3162 µM) was 0.979. It also gave a relative viability (NCI-H322M; first compound 0.01 µM) of 1.2, a relative viability (NCI-H322M; first compound 0.03162 µM) of 1.32 and a relative viability (NCI-H322M; first compound 0.3162 µM) of 1.19. For the same compound, the relative viability (NCI-H1666; first compound 0.01 µM) was 0.725, the relative viability (NCI-H1666; first compound 0.03162 µM) was 0.878 and the relative viability (NCI-H1666; first compound 0.3162 µM) was 0.889. For the same compound, the relative viability (EMC-BAC-2; first compound 0.01 µM) was 1.2, the relative viability (EMC-BAC-2; first compound 0.03162 µM) was 1.11 and the relative viability (EMC-BAC-2; first compound 0.3162 µM) was 1.16. For the same compound, the relative viability (CAL-12T; first compound 0.03162 µM) was 1.01 and the relative viability (CAL-12T; first compound 0.3162 µM) was 0.876.

Reference: the supplement of paper PMC10307832
